According to US8530652B2, “Pyrrolopyrazoles, potent kinase inhibitors” (Agouron Pharmaceuticals, Inc., priority 2005, dated 2013):

What was measured:
[1] = molecular target: PAK4 kinase domain (PAK4 KD) (Homo sapiens (Human), UniProt O96013); assay: PAK4 kinase domain enzymatic assay (coupled PK/LDH, NADH absorbance at 340 nm); format: biochemical; settings: PAK4 kinase domain, 25 nM PAK4 KD, 0.04 mM ATP, pH 7.5
Source text: Cloning, expression, and purification of recombinant PAK4 Kinase domain (PAK4 KD): The cDNA coding for PAK4 was amplified from the EST clone (#12) (purchased from Research Genetics) by using PCR. […] The PCR amplified product was cloned into Topo vector (Invitrogen Inc.), and verified by DNA sequencing. PAK4 KD was then subcloned into expression plasmid pET28a(+), pET24a(+), or pGST4.5. The recombinant plasmids containing PAK4 KD was transformed into BL21(DE3) cells for recombinant protein expression. […] The cells were then harvested and lyzed for protein purification. Ni-NTA column (pET28a(+), pET24a(+)) and glutathione column (pGST4.5) were used for the purification.
PAK4 kinase domain enzymatic assay conditions: the enzymatic activity of PAK4 KD was measured by its ability to catalyze the transfer of a phosphate residue from a nucleoside triphosphate to an amino acid side chain of a commercially available peptide (amino acid sequence […]). The conversion of ATP to ADP accompanies the catalytic reaction. The PAK4 KD catalyzed production of ADP from ATP was coupled to the oxidation of NADH through the activities of pyruvate kinase (PK) and lactate dehydrogenase (LDH). The conversion of NADH to NAD^+ is monitored by the decrease in absorbance at 340 nm (e340=6.22 cm^−1mM^−1) using a Molecular Devices SPECTRAMAX 190 in conjunction with the Biomec FX. Typical reaction solutions contain 2 mM phosphoenolpyruvate, 0.35 mM NADH, 10 mM MgCl2, 1 mM DTT, 0.4 mM peptide ([…]) 0.04 mM ATP, 1 units/mL PK, 1 units/mL LDH, 0.01% Tween 20 in 50 mM HEPES, pH 7.5. […] The PAK KD Ki of each compound of the invention (the inhibitor) was calculated based on multiple of Percent Inhibition numbers of the inhibitor at different inhibitor concentrations. The peptide (amino sequence […]) was purchased from American Peptide Company. NADH, MgCl2, HEPES, DTT, ATP and PK/LDH were purchased from Sigma. Tween 20 was purchased from Calbiochem.

[2] = molecular target: PAK4 kinase activity in whole cells (TR-293-KDG, modified HEK 293 overexpressing GEF-H1b and PAK4 KD) (Homo sapiens (Human), UniProt O96013); assay: PAK4 cellular assay: sandwich ELISA of PAK4-dependent phosphorylation of GEF-H1b in TR-293-KDG cells; format: cell-based; settings: doxycycline-induced, 3-hour exposure, phospho-GEF-H1b ELISA
Source text: A sandwich ELISA method was used to measure the PAK4 kinase activity in whole cells. The level of PAK4-dependent phosphorylation of GEF-H1b can be determined by monitoring the binding of a phosphospecific antibody to GEF-H1b. A modified HEK 293 cell line is used in the bioassay and it has been engineered to overexpress both GEF-H1b and the kinase domain (KD) of PAK4. The KD of PAK4 is inducible in this cell line by tetracycline (Trex system, Invitrogen). The name of this cell line has been designated TR-293-KDG. To establish a phosphorylation event on GEF-H1, cells are induced with doxycycline to express the PAK4 KD. […] Candidate substance effect is measured as the ability to block this phosphorylation event.
ELISA plate was prepared by pre-coating the plates with a capture antibody (α-HA-tag mouse monoclonal antibody), blocked with BSA, and washed in 0.1% tween 20 in tris-buffered saline (TBST). Tissue culture plates (precoated with poly-D-lysine) were seeded with TR-293-KDG cells. The TR-293-KDG Cells were induced to express the PAK4 KD with doxycycline overnight and subsequently & concomitantly treated with candidate substances or diluent for an additional 3-hour, continuous exposure. Cells were then lysed with a modified RIPA buffer supplemented with protease inhibitors. The fresh whole cell lysates were then added to the ELISA plate for 2-hours. Between all subsequent steps plates were washed 4 times with TBST. Detection antibody (recognizing the phospho-specific eptitope on GEF-H1b) was added for 1 hour, followed by addition of an enzyme linked goat α-rabbit secondary antibody for 45 minutes. […] EC50 values were calculated by sigmoid curve fitting using a four-parameter analysis.

Chain of PAK4 kinase activity in whole cells (TR-293-KDG, modified HEK 293 overexpressing GEF-H1b and PAK4 KD) (O96013 321-572): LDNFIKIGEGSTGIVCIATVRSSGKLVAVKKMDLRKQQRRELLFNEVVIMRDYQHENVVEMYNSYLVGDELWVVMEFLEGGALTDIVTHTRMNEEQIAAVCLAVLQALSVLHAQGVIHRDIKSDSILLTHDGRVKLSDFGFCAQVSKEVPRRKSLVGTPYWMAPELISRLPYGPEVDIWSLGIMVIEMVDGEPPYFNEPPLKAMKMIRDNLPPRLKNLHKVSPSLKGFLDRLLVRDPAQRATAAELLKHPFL
Chain of PAK4 kinase domain (PAK4 KD) (O96013 321-572): as above

SMILES	Ki [1] [nM]	EC50 [2] [nM]
Cc1ncc(F)c(Nc2n[nH]c3c2CN(C(=O)N[C@@H]2C[C@H]2c2ccccc2)C3(C)C)n1 (relative stereo) [Example 44, 3-[(5-fluoro-2-methylpyrimidin-4-yl)amino]-6,6-dimethyl-N-[trans-2-phenylcyclopropyl]-4,6-dihydropyrrolo[3,4-c]pyrazole-5(1H)-carboxamide]	230	> 4000
CC1(C)c2[nH]nc(Nc3ncnc4ccsc34)c2CN1C(=O)N[C@H]1C[C@@H]1c1ccccc1 (relative stereo) [Example 1, 6,6-dimethyl-N-[trans-2-phenylcyclopropyl]-3-(thieno[3,2-d]pyrimidin-4-ylamino)-4,6-dihydropyrrolo[3,4-c]pyrazole-5(1H)-carboxamide]	41	> 2000
Cc1nc(Nc2n[nH]c3c2CN(C(=O)N[C@@H]2C[C@H]2c2ccccc2)C3(C)C)c2sccc2n1 [Example 32, 6,6-Dimethyl-3-[(2-methylthieno[3,2-d]pyrimidin-4-yl)amino]-N-[(1R,2S)-2-phenylcyclopropyl]-4,6-dihydropyrrolo[3,4-c]pyrazole-5(1H)-carboxamide]	3.5	19
CC1(C)c2[nH]nc(Nc3nc(Cl)nc(Cl)n3)c2CN1C(=O)N[C@@H]1C[C@H]1c1ccccc1 (relative stereo) [Example 9, 3-[(4,6-dichloro-1,3,5-triazin-2-yl)amino]-6,6-dimethyl-N-[trans-2-phenylcyclopropyl]-4,6-dihydropyrrolo[3,4-c] pyrazole-5(1H)-carboxamide]	270	> 4000
Cc1cc2c(Nc3n[nH]c4c3CN(C(=O)N[C@H](CN(C)C)c3ccccc3)C4(C)C)ncnc2s1 [Example 62, N-[(1S)-2-(dimethylamino)-1-phenylethyl]-6,6-dimethyl-3-[(6-methylthieno[2,3-d]pyrimidin-4-yl)amino]-4,6-dihydropyrrolo[3,4-c]pyrazole-5(1H)-carboxamide]	15	15
CN(C)C[C@@H](OC(=O)N1Cc2c(Nc3ccnc(C(F)(F)F)n3)n[nH]c2C1(C)C)c1ccccc1 [Example 76, (1S)-2-(dimethylamino)-1-phenylethyl 6,6-dimethyl-3-{[2-(trifluoromethyl)pyrimidin-4-yl]amino}-4,6-dihydropyrrolo[3,4-c]pyrazole-5(1H)-carboxylate]	8.3	< 3.9
COc1ncc(F)c(Nc2n[nH]c3c2CN(C(=O)N[C@@H]2C[C@H]2c2ccccc2)C3(C)C)n1 (relative stereo) [Example 43, 3-[(5-fluoro-2-methoxypyrimidin-4-yl)amino]-6,6-dimethyl-N-[trans-2-phenylcyclopropyl]-4,6-dihydropyrrolo[3,4-c]pyrazole-5(1H)-carboxamide]	450	> 4000
Cn1cnc2c(Nc3n[nH]c4c3CN(C(=O)N[C@@H]3C[C@H]3c3ccccc3)C4(C)C)ncnc21 (relative stereo) [Example 36, 6,6-dimethyl-3-[(9-methyl-9H-purin-6-yl)amino]-N-[trans-2-phenylcyclopropyl]-4,6-dihydropyrrolo[3,4-c]pyrazole-5(1H)-carboxamide]		> 4000
Cc1nccc(Nc2n[nH]c3c2CN(C(=O)N[C@@H]2C[C@H]2c2ccccc2)C3(C)C)n1 (relative stereo) [Example 39, 6,6-dimethyl-3-[(2-methylpyrimidin-4-yl)amino]-N-[trans-2-phenylcyclopropyl]-4,6-dihydropyrrolo[3,4-c]pyrazole-5(1H)-carboxamide]		> 4000
CN(C)C[C@@H](NC(=O)N1Cc2c(Nc3ccnc(C(F)(F)F)n3)n[nH]c2C1(C)C)c1ccccc1 [Example 55, N-[(1S)-2-(dimethylamino)-1-phenylethyl]-6,6-dimethyl-3-{[2-(trifluoromethyl)pyrimidin-4-yl]amino}-4,6-dihydropyrrolo[3,4-c]pyrazole-5(1H)-carboxamide]		> 4000
